Measured values reported in patent publication US7053215B2, “Substituted Quinazolin-4(3H)-one compounds, compositions, and methods for their use” (Amgen SF, LLC, priority 2000, dated 2006).

melting point: 159.2 °C
SMILES: CC(c1nc2ccccc2c(=O)n1-c1ccc(F)cc1)N(Cc1ccccn1)C(=O)Cc1ccc(C(F)(F)F)cc1.Cl (stereo not shown)
